Publication PMC6792352, “Limited Chemical Structural Diversity Found to Modulate Thyroid Hormone Receptor in the Tox21 Chemical Library” (Environmental Health Perspectives, 2019)
Structures can show the parent of a compound that is named as a salt. Where two headings read alike, the source gives them in different places.

System: GH3-TRE-Luc cell line
Conditions: read-out: AC50 (uM) modified / 1000, viability, 1 nM T3 present, 24 h

Q: For `c1cnc2c(c1)ccc1cccnc12` [1,10-Phenanthroline], which CC50 (Tox21_110001=Tox21_201998) is on record?
A: 46.4 µM

Q: And the CC50 (Tox21_110001=Tox21_303111)?
A: 66.2 µM

Q: Which CC50 (Tox21_110001=Tox21_301367) does the source give for `CC1=CC(=O)c2ccccc2C1=O` [Menadione] here?
A: 13 µM

Q: For `O=C1C2CC=CCC2C(=O)N1SC(Cl)(Cl)Cl` (stereo not shown) [Captan], which CC50 (Tox21_110001=Tox21_111065) is on record?
A: 4.99 µM

Q: What about the CC50 (Tox21_110001=Tox21_201276) of the same compound?
A: 76 µM

Q: And the CC50 (Tox21_110001=Tox21_300772)?
A: 2.54 µM

Q: Which CC50 (Tox21_110001=Tox21_110829) does the source give for `Nc1ccc(/N=N/c2ccccc2)c(N)n1` [Phenazopyridine hydrochloride] here?
A: 18.5 µM

Q: What about the CC50 (Tox21_110001=Tox21_202153) of the same compound?
A: 45.2 µM

Q: And the CC50 (Tox21_110001=Tox21_302738)?
A: 44.8 µM

Q: What does the source list for `Oc1ccc(OCc2ccccc2)cc1` [4-(Benzyloxyl)phenol]?
A: CC50 (Tox21_110001=Tox21_110396): 4.58 µM; CC50 (Tox21_110001=Tox21_201147): 10.2 µM

Q: For `O=[N+]([O-])c1ccc(O)cc1` [Sodium 4-nitrophenolate], which CC50 (Tox21_110001=Tox21_300477) is on record?
A: 44.7 µM

Q: With `c1ccc(C(O[C@@H]2CCCN(CCc3ccc4c(c3)OCO4)C2)c2ccccc2)cc1` [Zamifenacin] as the compound, how does the CC50 (Tox21_110001=Tox21_300210) read?
A: 40 µM

Q: `O=[N+]([O-])c1ccc(O)cc1` [4-Nitrophenol] was tested. Which CC50 (Tox21_110001=Tox21_300117) did it give?
A: 67.6 µM

Q: How did the CC50 (Tox21_110001=Tox21_202695) turn out when `CC[n+]1ccccc1` [1-Ethylpyridinium bromide] was run?
A: 32.7 µM

Q: How did the CC50 (Tox21_110001=Tox21_202525) turn out when `CN(C)c1ccc2nc3ccc(=[N+](C)C)cc-3sc2c1` [Methylene Blue trihydrate] was run?
A: 27.1 µM

Q: For `CCCCCCCCCCCCN` [Dodecylamine hydrochloride], which CC50 (Tox21_110001=Tox21_301702) is on record?
A: 19.6 µM

Q: With `NCCNc1cccc2ccccc12` [N-(1-Naphthyl)ethylenediamine dihydrochloride] as the compound, how does the CC50 (Tox21_110001=Tox21_111184) read?
A: 10.9 µM

Q: What about the CC50 (Tox21_110001=Tox21_201928) of the same compound?
A: 37 µM

Q: And the CC50 (Tox21_110001=Tox21_302783)?
A: 26 µM

Q: Which results are given for `CCCCNC(=O)OCC#CI` [3-Iodo-2-propynyl-N-butylcarbamate]?
A: CC50 (Tox21_110001=Tox21_201864): 15.9 µM; CC50 (Tox21_110001=Tox21_301117): 4.22 µM

Q: For `[H]/N=C(\N/C(=N/[H])NCCCCCCNC(=N)NC(=N)Nc1ccc(Cl)cc1)Nc1ccc(Cl)cc1` [Chlorhexidine diacetate], which CC50 (Tox21_110001=Tox21_302363) is on record?
A: 5.83 µM

Q: Which CC50 (Tox21_110001=Tox21_111174) does the source give for `CC1CC(OC(=O)c2ccccc2O)CC(C)(C)C1` (stereo not shown) [3,3,5-Trimethylcyclohexyl salicylate] here?
A: 42.4 µM

Q: What about the CC50 (Tox21_110001=Tox21_303082) of the same compound?
A: 72.7 µM

Q: For `COC(=O)C1=C(C)NC(C)=C(C(=O)OCCN(C)Cc2ccccc2)C1c1cccc([N+](=O)[O-])c1` (stereo not shown) [Nicardipine], which CC50 (Tox21_110001=Tox21_110211) is on record?
A: 7.48 µM

Q: What about the CC50 (Tox21_110001=Tox21_301832) of the same compound?
A: 22.2 µM

Q: With `COc1ccc(CN(CCN(C)C)c2ccccn2)cc1` [Pyrilamine] as the compound, how does the CC50 (Tox21_110001=Tox21_200978) read?
A: 39.2 µM

Q: For `COc1cc2c(c(OC)c1OC)-c1c(cc3c(c1OC)OCO3)C[C@H](C)[C@](C)(O)C2` [Gomisin A], which CC50 (Tox21_110001=Tox21_113433) is on record?
A: 22.9 µM

Q: `CC[C@H](c1ccc(O)cc1)[C@@H](CC)c1ccc(O)cc1` [meso-Hexestrol] was tested. Which CC50 (Tox21_110001=Tox21_110377) did it give?
A: 13.9 µM

Q: And the CC50 (Tox21_110001=Tox21_301456)?
A: 47 µM

Q: With `CC(=O)Nc1ccc(C(=O)CCl)cc1` [4'-(Chloroacetyl)acetanilide] as the compound, how does the CC50 (Tox21_110001=Tox21_302954) read?
A: 16.5 µM

Q: For `Oc1cc(Cl)ccc1Oc1ccc(Cl)cc1Cl` [Triclosan], which CC50 (Tox21_110001=Tox21_111648) is on record?
A: 50.4 µM

Q: And the CC50 (Tox21_110001=Tox21_400079)?
A: 13.3 µM

Q: With `CC(C)Nc1ccc(Nc2ccccc2)cc1` [N-Isopropyl-N'-phenyl-p-phenylenediamine] as the compound, how does the CC50 (Tox21_110001=Tox21_111169) read?
A: 13.5 µM

Q: What about the CC50 (Tox21_110001=Tox21_201424) of the same compound?
A: 36.2 µM

Q: And the CC50 (Tox21_110001=Tox21_303202)?
A: 33.4 µM

Q: With `NC[C@H]1O[C@H](O[C@H]2[C@H](O)[C@@H](O[C@H]3O[C@H](CO)[C@@H](O)[C@H](N)[C@H]3O)[C@H](N)C[C@@H]2N)[C@H](O)[C@@H](O)[C@@H]1O` [Kanamycin A sulfate] as the compound, how does the CC50 (Tox21_110001=Tox21_202817) read?
A: 3.08 µM

Q: For `O=C1OC2(c3ccccc31)c1cc(I)c(O)c(I)c1Oc1c2cc(I)c(O)c1I` [FD&C Red 3], which CC50 (Tox21_110001=Tox21_202932) is on record?
A: 18.4 µM

Q: And the CC50 (Tox21_110001=Tox21_302085)?
A: 23.6 µM

Q: For `CCN1/C(=C/C=C/C=C/c2sc3ccccc3[n+]2CC)Sc2ccccc21` [Dithiazanine chloride], which CC50 (Tox21_110001=Tox21_113171) is on record?
A: 7.02 µM

Q: Which CC50 (Tox21_110001=Tox21_110117) does the source give for `CN(C)CCCN1c2ccccc2CCc2ccc(Cl)cc21` [Clomipramine] here?
A: 8.96 µM

Q: With `CC(=C(CCO)SSCC1CCCO1)N(C=O)Cc1cnc(C)nc1N` (stereo in doubt) [Fursultiamine] as the compound, how does the CC50 (Tox21_110001=Tox21_112989) read?
A: 34.7 µM

Q: How did the CC50 (Tox21_110001=Tox21_112018) turn out when `CN1CCCCC1CCN1c2ccccc2Sc2ccc([S+](C)[O-])cc21` (stereo not shown) [Mesoridazine] was run?
A: 18.9 µM

Q: Which CC50 (Tox21_110001=Tox21_202751) does the source give for `O=C(O)CS` [Ammonium thioglycolate] here?
A: 58.7 µM

Q: With `N#Cc1c(Cl)c(Cl)c(Cl)c(C#N)c1Cl` [Chlorothalonil] as the compound, how does the CC50 (Tox21_110001=Tox21_201687) read?
A: 0.523 µM

Q: And the CC50 (Tox21_110001=Tox21_300862)?
A: 0.188 µM

Q: How did the CC50 (Tox21_110001=Tox21_302700) turn out when `COc1ccc(N)cc1N` [2,4-Diaminoanisole sulfate hydrate] was run?
A: 48.9 µM

Q: With `C=C[C@H]1C[N@@]2CC[C@H]1C[C@H]2[C@H](O)c1ccnc2ccc(OC)cc12` [Quinine hydrochloride dihydrate] as the compound, how does the CC50 (Tox21_110001=Tox21_303565) read?
A: 50.6 µM

Q: Which results are given for `COC(=O)[C@H]1[C@H]2C[C@@H]3c4[nH]c5ccccc5c4CCN3C[C@H]2C[C@@H](OC(=O)c2cc(OC)c(OC)c(OC)c2)[C@@H]1OC` [Deserpidine]?
A: CC50 (Tox21_110001=Tox21_112646): 1.94 µM; CC50 (Tox21_110001=Tox21_113102): 27.7 µM

Q: `O=S1(=O)OC(c2ccc(O)cc2)(c2ccc(O)cc2)c2ccccc21` [Phenol red] was tested. Which CC50 (Tox21_110001=Tox21_303570) did it give?
A: 79.8 µM
